Patent publication US20230382915A1, “GCN2 AND PERK KINASE INHIBITORS AND METHODS OF USE THEREOF” (Deciphera Pharmaceuticals, LLC, priority 2021, published 2023)

Legend:
GCN2 kinase = GCN2 kinase (Homo sapiens (Human), UniProt Q9P2K8); assay: Biochemical assay for GCN2 (TR-FRET kinase activity); conditions: 1 mM ATP
Experimental: Activity of GCN2 kinase was determined using a TR-FRET kinase activity assay (e.g. Riddle et al. Analytical Biochemistry (2006) 356(1) 108-116). Assays were conducted in 384-well plates (13 μL assay volume) using 2 nM GCN2 (Carna Biosciences), 130 nM GFP-EIf2α (Invitrogen), 0.2 mg/mL E. coli tRNA (sigma) and 1 mM ATP in kinase buffer (Invitrogen). Inhibition of GCN2 was measured by adding serial diluted test compound (final assay concentration of 0.5% DMSO) followed by a 3-hour incubation. Tb-peIF2α (pSer52) antibody (Invitrogen) (2 nM final assay concentration) in kinase buffer containing EDTA (final assay concentration of 20 mM) was added. After a 60 min incubation at room temperature, TR-FRET was monitored using an excitation wavelength of 340 nm and emission wavelengths of 490 nm and 520 nm. The emission ratio (520/490) at each compound concentration of was converted to percent inhibition using controls (i.e., reaction with no test compound and reaction with a known inhibitor) and IC50 values were calculated by fitting a four-parameter sigmoidal curve to the data using Prism (GraphPad software).

[1] = tested on: ATF4 in thapsigargin stimulated CCRF-CEM cells (PERK); assay: CCRF-CEM thapsigargin (TG) ATF4 ELISA; type: cell-based; conditions: Homo sapiens, 1 μM thapsigargin
Experimental: CCRF-CEM leukemia cells (catalog #CCL-116) were obtained from the American Type Culture Collection (ATTC, Manassas, VA). Briefly, cells were grown in RPMI-1640 medium supplemented with 10% heat-inactivated fetal bovine serum (Invitrogen, Carlsbad, CA) and 1% Penicillin/Streptomycin/L-Glutamine at 37° C., 5% CO2, and 95% humidity. Cells were expanded until reaching one million cells per mL at which time they were subcultured or harvested for assay use. One million five hundred thousand cells per well in 1 mL complete growth medium were dispensed into 12-well plates and incubated overnight. A serial dilution of test compound was added and cells were incubated at 37° C., 5% CO2, and 95% for three hours, then 1 μM thapsigargin was added and cells were incubated for an additional hour at 37° C., 5% CO2, and 95%. Cells were lysed then ATF4 levels were measured using an ELISA assay (Proteintech, Rosemont, IL). Absorbance was measured at 450 nm and 544 nM using a Synergy2 or equivalent reader (Biotek, Winooski VT). Data was analyzed using PRISM software (Graphpad, San Diego, CA) to calculate IC50 values.

PERK enzyme = PERK enzyme (Homo sapiens (Human), UniProt Q9NZJ5); assay: Biochemical assay for PERK (coupled pyruvate kinase/lactate dehydrogenase); conditions: 1 mM ATP
Sequence of PERK enzyme (Q9NZJ5 other isoform, or with tags, fused parts or gaps): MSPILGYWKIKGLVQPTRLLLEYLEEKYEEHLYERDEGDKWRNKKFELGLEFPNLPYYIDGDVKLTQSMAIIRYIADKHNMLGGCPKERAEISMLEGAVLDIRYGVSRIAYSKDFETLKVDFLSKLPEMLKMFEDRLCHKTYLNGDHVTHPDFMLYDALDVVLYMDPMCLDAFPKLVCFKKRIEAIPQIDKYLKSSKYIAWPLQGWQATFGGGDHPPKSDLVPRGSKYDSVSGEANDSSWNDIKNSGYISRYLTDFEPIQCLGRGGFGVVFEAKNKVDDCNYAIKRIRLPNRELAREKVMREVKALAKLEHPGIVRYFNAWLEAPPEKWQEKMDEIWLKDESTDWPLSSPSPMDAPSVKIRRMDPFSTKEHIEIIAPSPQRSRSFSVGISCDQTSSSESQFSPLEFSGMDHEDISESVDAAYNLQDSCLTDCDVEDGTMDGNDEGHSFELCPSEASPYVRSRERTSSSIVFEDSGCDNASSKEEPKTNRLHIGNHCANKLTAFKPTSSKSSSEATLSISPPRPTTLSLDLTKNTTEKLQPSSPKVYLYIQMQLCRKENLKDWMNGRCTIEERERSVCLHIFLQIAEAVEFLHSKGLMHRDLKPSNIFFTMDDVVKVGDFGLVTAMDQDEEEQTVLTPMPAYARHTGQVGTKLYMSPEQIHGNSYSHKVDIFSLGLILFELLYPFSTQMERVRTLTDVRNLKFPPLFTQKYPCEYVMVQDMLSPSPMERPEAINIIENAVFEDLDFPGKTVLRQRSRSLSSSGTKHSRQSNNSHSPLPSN
Experimental: Activity of PERK kinase was determined spectroscopically using a coupled pyruvate kinase/lactate dehydrogenase assay that continuously monitors the ATP hydrolysis-dependent oxidation of NADH (e.g., Schindler et al. Science (2000) 289: 1938-1942). Assays were conducted in 384-well plates ([…] final volume) using 10 nM PERK (from Beryllium), 0.25 mg/mL Myelin Basic Protein substrate, 1.5 units pyruvate kinase, 2.1 units lactate dehydrogenase, 1 mM phosphoenol pyruvate, 0.28 mM NADH and 1 mM ATP in assay buffer (100 mM Tris, pH 7.5, 15 mM MgCl2, 0.5 mM DTT, 0.004% (w/v) BSA, and 0.004% Triton X-100). Inhibition of PERK was measured by adding serial diluted test compound (final assay concentration of 1% DMSO). A decrease in absorption at 340 nm was monitored continuously for 6 hours at 30° C. on a multi-mode microplate reader (BioTek). The reaction rate was calculated using the 2-3 h time frame. The reaction rate at each concentration of compound was converted to percent inhibition using controls (i.e., reaction with no test compound and reaction with a known inhibitor) and IC50 values were calculated using software routines in Prism (GraphPad software).

CCRF-CEM leukemia cells = assay: CCRF-CEM ASNase cell proliferation assay; type: cell-based; conditions: Homo sapiens, 1 mU/mL ASNase, 72 h
Experimental: CCRF-CEM leukemia cells (catalog #CCL-116) were obtained from the American Type Culture Collect (ATTC, Manassas, VA). Cells were grown in RPMI-1640 medium supplemented with 10% heat-inactivated fetal bovine serum (Invitrogen, Carlsbad, CA) and 1% Penicillin/Streptomycin/L-Glutamine at 37° C., 5% CO2, and 95% humidity. Cells were expanded until reaching one million cells per mL at which time they are subcultured or harvested for assay use. Ten thousand cells per well in 200 μL RPMI-1640 supplemented with 10% heat-inactivated fetal bovine serum and 1% Penicillin/Streptomycin were dispensed into a 96-well black clear bottom plate. A serial dilution of test compound and 1 mU/mL ASNase was added in triplicate and plates were incubated for 72 h at 37° C., 5% CO2, and 95% humidity. At the end of the incubation, 40 μL of a […] solution of resazurin (Sigma, St. Louis, MO) in PBS was added to each well of the plate and plates were incubated for an additional 6 h at 37° C., 5% CO2, and 95% humidity. Plates were read on a Synergy2 or equivalent reader (Biotek, Winooski VT) using an excitation of 540 nm and an emission of 600 nm. Data was analyzed using GraphPad Prism software (GraphPad, San Diego, CA) to calculate IC50 values.

[2] = tested on: ATF4 in H929 multiple myeloma cells; assay: H929 ATF4 ELISA assay; type: cell-based; conditions: four hours, relative to vehicle treated control
Experimental: H929 multiple myeloma cells (catalog #CRL-9068) were obtained from the American Type Culture Collection (ATTC, Manassas, VA). Briefly, cells were grown in RPMI-1640 medium supplemented with 20% heat-inactivated fetal bovine serum (catalog #A3840002, ThermoFisher Scientific, Waltham, MA), 1% Penicillin/Streptomycin/L-Glutamine (catalog #10378016, ThermoFisher Scientific, Waltham, MA), and 0.05 mM 2-mercaptoethanol (catalog #21985-023, ThermoFisher Scientific, Waltham, MA) at 37° C., 5% CO2, and 95% humidity. Cells were expanded until reaching one million five hundred thousand cells per mL at which time they were sub-cultured or harvested for assay use. One million five hundred thousand cells per well in 1 mL complete growth medium were dispensed into 12-well plates and incubated overnight. A serial dilution of test compound was added, and cells were incubated at 37° C., 5% CO2, and 95% for four hours. Cells were lysed then ATF4 levels were measured using an ELISA assay (Proteintech, Rosemont, IL). Absorbance is measured at 450 nm and 544 nM using a Synergy2 or equivalent reader (Biotek, Winooski VT). Data were analyzed using PRISM software (Graphpad, San Diego, CA) to calculate fold stimulation of cellular ATF4 relative to vehicle treated control.

Sequence of GCN2 kinase (Q9P2K8 whole entry): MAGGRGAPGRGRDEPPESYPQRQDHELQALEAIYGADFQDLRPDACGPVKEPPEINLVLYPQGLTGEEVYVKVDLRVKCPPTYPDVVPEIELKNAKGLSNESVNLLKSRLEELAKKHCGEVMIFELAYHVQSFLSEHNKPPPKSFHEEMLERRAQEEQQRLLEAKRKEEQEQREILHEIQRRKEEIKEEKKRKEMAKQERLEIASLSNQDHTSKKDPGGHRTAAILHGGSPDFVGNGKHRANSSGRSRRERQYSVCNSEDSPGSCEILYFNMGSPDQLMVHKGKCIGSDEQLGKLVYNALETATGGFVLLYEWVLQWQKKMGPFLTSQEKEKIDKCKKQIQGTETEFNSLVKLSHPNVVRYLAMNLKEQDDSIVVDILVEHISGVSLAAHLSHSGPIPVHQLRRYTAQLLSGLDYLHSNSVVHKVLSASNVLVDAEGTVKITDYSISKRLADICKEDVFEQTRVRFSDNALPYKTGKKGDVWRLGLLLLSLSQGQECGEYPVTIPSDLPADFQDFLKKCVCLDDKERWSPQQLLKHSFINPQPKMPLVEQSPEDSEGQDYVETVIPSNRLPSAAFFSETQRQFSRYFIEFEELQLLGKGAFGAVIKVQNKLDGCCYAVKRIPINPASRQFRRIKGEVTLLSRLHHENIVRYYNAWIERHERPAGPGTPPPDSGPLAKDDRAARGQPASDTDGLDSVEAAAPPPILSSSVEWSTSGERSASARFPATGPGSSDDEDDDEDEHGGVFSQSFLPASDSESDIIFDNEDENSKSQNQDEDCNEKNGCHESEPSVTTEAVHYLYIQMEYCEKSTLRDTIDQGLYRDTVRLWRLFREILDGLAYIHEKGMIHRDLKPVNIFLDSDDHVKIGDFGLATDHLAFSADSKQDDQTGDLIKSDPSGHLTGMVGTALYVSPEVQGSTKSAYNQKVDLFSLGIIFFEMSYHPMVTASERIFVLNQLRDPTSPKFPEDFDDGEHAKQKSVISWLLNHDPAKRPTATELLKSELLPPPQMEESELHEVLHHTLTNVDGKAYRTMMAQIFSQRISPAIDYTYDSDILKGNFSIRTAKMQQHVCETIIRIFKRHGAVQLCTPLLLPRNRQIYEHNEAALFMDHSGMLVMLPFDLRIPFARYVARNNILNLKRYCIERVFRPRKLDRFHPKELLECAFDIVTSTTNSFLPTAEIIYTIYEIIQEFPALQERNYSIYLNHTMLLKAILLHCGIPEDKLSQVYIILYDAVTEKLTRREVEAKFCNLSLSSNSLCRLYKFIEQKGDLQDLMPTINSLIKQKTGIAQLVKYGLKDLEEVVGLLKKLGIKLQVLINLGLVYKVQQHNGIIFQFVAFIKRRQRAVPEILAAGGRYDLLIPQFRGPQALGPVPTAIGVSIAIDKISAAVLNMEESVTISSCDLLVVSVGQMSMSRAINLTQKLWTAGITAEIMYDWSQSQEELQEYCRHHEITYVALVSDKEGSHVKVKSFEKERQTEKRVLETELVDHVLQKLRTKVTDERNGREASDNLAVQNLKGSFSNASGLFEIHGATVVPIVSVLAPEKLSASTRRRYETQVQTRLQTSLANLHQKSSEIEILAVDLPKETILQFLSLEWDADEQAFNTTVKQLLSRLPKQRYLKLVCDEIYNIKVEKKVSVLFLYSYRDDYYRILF

Row | Structure (SMILES) | IC50 (GCN2 kinase) [nM] | IC50 [1] [nM] | IC50 (PERK enzyme) [nM] | IC50 (CCRF-CEM leukemia cells) [nM] | H929 NS ATF4 ELISA (ATF4 stim) [2]
1 | Cc1cc(CO)c(Cl)c(S(=O)(=O)Nc2cccc(-c3cn(C)c4ncnc(N)c34)c2F)c1 [Example 25] | 100 to 500 | ≤ 100 | ≤ 100 | 100 to 500 | +++ (an ATF4 stim greater than 10 fold and less than or equal to 20 fold)
2 | COCCn1cc(-c2cccc(NS(=O)(=O)c3cc(Cl)cc(CO)c3Cl)c2F)c2c(N)ncnc21 [Example 4] | ≤ 100 | ≤ 100 | ≤ 100 | ≤ 100 | +++ (an ATF4 stim greater than 10 fold and less than or equal to 20 fold)
3 | Nc1ncnc2c1c(-c1cccc(NS(=O)(=O)c3cc(Cl)cc(CO)c3Cl)c1F)cn2C1CNC1 [Example 16] | ≤ 100 | 100 to 500 | ≤ 100 | 500 to 1000 | 
4 | Cn1cc(-c2cccc(NS(=O)(=O)c3cccc(CO)c3Cl)c2F)c2c(N)ncnc21 [Example 5] | 1000 to 10000 | 100 to 500 | ≤ 100 | 1000 to 10000 | ++ (an ATF4 stim greater than 5-fold and less than or equal to 10 fold)
5 | Cn1cc(-c2cc(F)cc(NS(=O)(=O)c3cc(Cl)cc(CO)c3Cl)c2F)c2c(N)ncnc21 [Example 14] | ≤ 100 | 100 to 500 | ≤ 100 | 100 to 500 | ++ (an ATF4 stim greater than 5-fold and less than or equal to 10 fold)
6 | CC(=O)OCc1cc(Cl)cc(S(=O)(=O)Nc2cccc(-c3cn(C)c4ncnc(N)c34)c2F)c1Cl [Example 1, 3-(N-(3-(4-amino-7-methyl-7H-pyrrolo[2,3-d]pyrimidin-5-yl)-2-fluorophenyl)sulfamoyl)-2,5-dichlorobenzyl acetate] | 1000 to 10000 | 100 to 500 | ≤ 100 | 100 to 500 | 
7 | CC(C)(C)n1cc(-c2cccc(NS(=O)(=O)c3cc(Cl)cc(CO)c3Cl)c2F)c2c(N)ncnc21 [Example 13] | 100 to 500 | 100 to 500 | ≤ 100 | 100 to 500 | 
8 | CCC(C)(C)C(=O)OCc1cc(Cl)cc(S(=O)(=O)Nc2cccc(-c3cn(C)c4ncnc(N)c34)c2F)c1Cl [Example 30] | 1000 to 10000 | 500 to 1000 | 1000 to 10000 | 1000 to 10000 | 
9 | Nc1ncnc2c1c(-c1cccc(NS(=O)(=O)c3cc(Cl)cc(CO)c3Cl)c1F)cn2-c1cn[nH]c1 [Example 32] | ≤ 100 | 100 to 500 | ≤ 100 | ≤ 100 | 
10 | Cn1cc(-c2cccc(NS(=O)(=O)c3cc(F)cc(CO)c3Cl)c2F)c2c(N)ncnc21 [Example 19] | 100 to 500 | ≤ 100 | ≤ 100 | 100 to 500 | 
11 | Nc1nccc2occ(-c3cccc(NS(=O)(=O)c4cc(Cl)cc(CO)c4Cl)c3F)c12 [Example 12] | 100 to 500 | 1000 to 10000 |  | 1000 to 10000 | 
12 | [2H]C([2H])([2H])n1cc(-c2cccc(NS(=O)(=O)c3cc(Cl)cc(CO)c3Cl)c2F)c2c(N)ncnc21 [Example 27] | ≤ 100 | ≤ 100 | ≤ 100 | ≤ 100 | 
13 | Nc1ncnc2c1c(-c1cccc(NS(=O)(=O)c3cc(Cl)cc(CO)c3Cl)c1F)cn2C1CCNCC1 [Example 15] | ≤ 100 | 500 to 1000 | ≤ 100 | 100 to 500 | 
14 | Cn1cc(-c2cccc(NS(=O)(=O)c3cc(Cl)cc(CO)c3F)c2F)c2c(N)ncnc21 [Example 22] | 100 to 500 | 100 to 500 | ≤ 100 | 1000 to 10000 | 
15 | Cn1cc(-n2cc(-c3cccc(NS(=O)(=O)c4cc(Cl)cc(CO)c4Cl)c3F)c3c(N)ncnc32)cn1 [Example 31] | ≤ 100 | ≤ 100 | ≤ 100 | ≤ 100 | 
16 | Cn1cc(-c2cccc(NS(=O)(=O)c3cc(Cl)cc(CO)c3Br)c2F)c2c(N)ncnc21 [Example 33] | ≤ 100 | ≤ 100 | ≤ 100 | ≤ 100 | 
17 | Nc1nccc2scc(-c3cccc(NS(=O)(=O)c4cc(Cl)cc(CO)c4Cl)c3F)c12 [Example 11] | 100 to 500 | 1000 to 10000 |  | 500 to 1000 | 
18 | Cn1cc(-c2cc(NS(=O)(=O)c3cc(Cl)cc(CO)c3Cl)cc(F)c2F)c2c(N)ncnc21 [Example 7] | 100 to 500 | 100 to 500 | ≤ 100 | 500 to 1000 | 
19 | Cn1cc(-c2cc(F)cc(NS(=O)(=O)c3cc(Cl)cc(CO)c3Cl)c2)c2c(N)ncnc21 [Example 6] | 100 to 500 | 100 to 500 | ≤ 100 | 500 to 1000 | 
20 | CN1CCC(n2cc(-c3cccc(NS(=O)(=O)c4cc(Cl)cc(CO)c4Cl)c3F)c3c(N)ncnc32)CC1 [Example 17] |  | ≤ 100 |  | ≤ 100 | +++ (an ATF4 stim greater than 10 fold and less than or equal to 20 fold)
21 | Cn1cc(-c2cccc(NS(=O)(=O)c3cc(Cl)cc(CO)c3Cl)c2Cl)c2c(N)ncnc21 [Example 20] | 100 to 500 | 100 to 500 | ≤ 100 | 100 to 500 | 
22 | CC(=O)OCc1cc(Cl)cc(S(=O)(=O)Nc2cccc(-c3cn(C4COC4)c4ncnc(N)c34)c2F)c1Cl [Example 9] | 1000 to 10000 | ≤ 100 | ≤ 100 | 100 to 500 | 
23 | COCc1cc(Cl)cc(S(=O)(=O)Nc2cccc(-c3cn(C)c4ncnc(N)c34)c2F)c1Cl [Example 29] | 100 to 500 | 100 to 500 | ≤ 100 | 1000 to 10000 | 
24 | Cn1cc(-c2cccc(NS(=O)(=O)c3cc(Cl)cc(CO)c3Cl)c2F)c2c(N)nccc21 [Example 18] | 1000 to 10000 | 1000 to 10000 | ≤ 100 | 1000 to 10000 | 
